Experimental data: PMC12671168, “The signal peptide of staphylococcal protein A alters the multimeric states of PepV” (Microbiology Spectrum, 2025)
Values joined by “and” are separate entries in the source; they are usually repeats but may differ in a detail not shown here. Equal values may be shown once. Peptide text beside a SMILES is read from it.

Assays:
[1] = target: T1, PepV (staphylococcal PepV) (Staphylococcus aureus, UniProt Q5HF23); assay: Cd-ninhydrin colorimetric dipeptidase assay, […] nm; format: biochemical; conditions: 25 mM Tris pH 7.5, 2 mM MnCl2, 5 mM TCEP, 37 °C
T1 construct: gene SACOL1801; His-tagged (pSY273, pET16b-H6-pepV), E. coli BL21(DE3), Ni-NTA; dimer, tetramer and higher oligomers
T1 sequence (Q5HF23 1-469): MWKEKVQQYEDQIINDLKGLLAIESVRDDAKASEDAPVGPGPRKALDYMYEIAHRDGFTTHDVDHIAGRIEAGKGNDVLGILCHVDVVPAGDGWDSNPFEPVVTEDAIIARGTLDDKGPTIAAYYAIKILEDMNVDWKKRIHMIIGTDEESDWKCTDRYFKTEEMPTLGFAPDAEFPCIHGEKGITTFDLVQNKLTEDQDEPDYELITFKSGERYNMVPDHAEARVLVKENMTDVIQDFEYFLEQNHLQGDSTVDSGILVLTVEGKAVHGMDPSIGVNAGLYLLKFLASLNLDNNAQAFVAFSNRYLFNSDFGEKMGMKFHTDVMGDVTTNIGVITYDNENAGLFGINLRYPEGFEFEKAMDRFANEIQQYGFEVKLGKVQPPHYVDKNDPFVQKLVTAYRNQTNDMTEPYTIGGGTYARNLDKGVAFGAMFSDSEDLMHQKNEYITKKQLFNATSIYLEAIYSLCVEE

PepVEpi = target: T2, PepVEpi (Staphylococcus epidermidis, UniProt Q5HNF9); assay: Cd-ninhydrin colorimetric dipeptidase assay, […] nm; format: biochemical; conditions: 25 mM Tris pH 7.5, 2 mM MnCl2, 5 mM TCEP, 37 °C
T2 construct: gene SERP1310; purified ortholog, probably His-tagged from E. coli BL21(DE3); multimers beyond dimer
T2 sequence (Q5HNF9 1-469): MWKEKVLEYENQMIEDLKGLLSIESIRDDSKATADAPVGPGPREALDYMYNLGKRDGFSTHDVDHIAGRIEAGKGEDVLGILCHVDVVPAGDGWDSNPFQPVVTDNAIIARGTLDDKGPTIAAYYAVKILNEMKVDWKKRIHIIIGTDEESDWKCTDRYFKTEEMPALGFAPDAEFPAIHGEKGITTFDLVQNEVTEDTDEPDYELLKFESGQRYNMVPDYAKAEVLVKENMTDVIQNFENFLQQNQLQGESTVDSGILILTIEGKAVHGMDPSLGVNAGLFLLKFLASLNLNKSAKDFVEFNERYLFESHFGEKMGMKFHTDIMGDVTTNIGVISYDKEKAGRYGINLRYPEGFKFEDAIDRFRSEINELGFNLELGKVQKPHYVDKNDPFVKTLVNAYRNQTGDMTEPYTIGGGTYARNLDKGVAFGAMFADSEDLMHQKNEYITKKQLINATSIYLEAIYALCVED

PepVSpn = target: T3, PepVSpn (Streptococcus pneumoniae, UniProt A0A0H2UP69); assay: Cd-ninhydrin colorimetric dipeptidase assay, […] nm; format: biochemical; conditions: 25 mM Tris pH 7.5, 2 mM MnCl2, 5 mM TCEP, 37 °C
T3 construct: gene pepV; purified ortholog, probably His-tagged from E. coli BL21(DE3); dimer only
T3 sequence (A0A0H2UP69 1-466): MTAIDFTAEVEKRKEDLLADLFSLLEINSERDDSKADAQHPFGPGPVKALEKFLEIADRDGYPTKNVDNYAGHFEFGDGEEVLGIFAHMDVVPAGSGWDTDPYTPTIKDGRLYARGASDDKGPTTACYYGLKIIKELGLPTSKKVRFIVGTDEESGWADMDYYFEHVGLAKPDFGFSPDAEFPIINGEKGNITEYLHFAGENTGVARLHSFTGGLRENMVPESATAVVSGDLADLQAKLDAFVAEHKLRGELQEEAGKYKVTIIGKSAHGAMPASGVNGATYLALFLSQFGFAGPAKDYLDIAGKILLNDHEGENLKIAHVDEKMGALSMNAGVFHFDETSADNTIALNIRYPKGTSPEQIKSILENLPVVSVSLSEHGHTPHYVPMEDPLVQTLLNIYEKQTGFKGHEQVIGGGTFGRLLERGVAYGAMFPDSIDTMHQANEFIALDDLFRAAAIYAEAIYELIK

PepVBsub = target: T4, PepVBsub (Bacillus subtilis, UniProt O34944); assay: Cd-ninhydrin colorimetric dipeptidase assay, […] nm; format: biochemical; conditions: 25 mM Tris pH 7.5, 2 mM MnCl2, 5 mM TCEP, 37 °C
T4 construct: gene ytjP; purified ortholog, probably His-tagged from E. coli BL21(DE3); multimers beyond dimer
T4 sequence (O34944 1-463): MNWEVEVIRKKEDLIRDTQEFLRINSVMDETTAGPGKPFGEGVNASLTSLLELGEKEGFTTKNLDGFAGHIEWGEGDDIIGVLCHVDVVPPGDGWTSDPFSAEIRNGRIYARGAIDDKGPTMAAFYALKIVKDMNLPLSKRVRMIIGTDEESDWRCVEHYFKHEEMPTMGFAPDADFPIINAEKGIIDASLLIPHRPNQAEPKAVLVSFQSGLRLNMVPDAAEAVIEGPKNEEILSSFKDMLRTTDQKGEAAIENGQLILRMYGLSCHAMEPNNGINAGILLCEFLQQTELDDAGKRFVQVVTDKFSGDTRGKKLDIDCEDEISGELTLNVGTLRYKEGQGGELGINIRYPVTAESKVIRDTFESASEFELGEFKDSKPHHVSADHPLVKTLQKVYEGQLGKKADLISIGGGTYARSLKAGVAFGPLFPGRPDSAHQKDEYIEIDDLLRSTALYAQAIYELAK

[2] = target: PepV (Staphylococcus aureus), recombinant His-PepV (Staphylococcus aureus); assay: SEC; purified PepV alone or incubated with a 10-fold molar excess of peptide; Agilent SEC-3 or TSKgel Super2000 on HPLC; 0.5 M HEPES pH 7.6, 150 mM NaCl; 0.35 mL/min; absorbance at 280 nm
[3] = target: PepV (Staphylococcus aureus), recombinant His-PepV (Staphylococcus aureus); assay: native gel or EMSA; purified proteins, alone or mixed with peptide or precursor (0.5 µM PepV, 10-fold molar excess or rising concentrations of SpA SP); NativePAGE 4%-16% gel, 5 mA, 4°C, silver stain
[4] = target: the molecule itself; assay: as above

C[C@H](N)C(=O)N[C@@H](C)C(=O)O [Ala-Ala] (H-Ala-Ala-OH)
Cd-ninhydrin colorimetric dipeptidase assay, 507 nm [1]: we assessed the enzymatic activity of PepV in the presence of the SpA SP | Cd-ninhydrin colorimetric dipeptidase assay, 507 nm (PepVEpi): performed a colorimetric ninhydrin dipeptidase assay using Ala-Ala as the substrate | Cd-ninhydrin colorimetric dipeptidase assay, 507 nm (PepVSpn): performed a colorimetric ninhydrin dipeptidase assay using Ala-Ala as the substrate | Cd-ninhydrin colorimetric dipeptidase assay, 507 nm (PepVBsub): performed a colorimetric ninhydrin dipeptidase assay using Ala-Ala as the substrate

PepV (Staphylococcus aureus), recombinant His-PepV (enzyme)
stoichiometry N [2]: 2 and 4 | stoichiometry N [3]: 2 and 4

SpA SP (signal peptide of staphylococcal protein A)
concentration of SpA SP at which the tetrameric and oligomeric PepV species diminish [3]: 300 nM

B1: E. coli PepT (enzyme, Escherichia coli, UniProt P29745 1-408, looked up)
chain: MDKLLERFLNYVSLDTQSKAGVRQVPSTEGQWKLLHLLKEQLEEMGLINVTLSEKGTLMATLPANVPGDIPAIGFISHVDTSPDCSGKNVNPQIVENYRGGDIALGIGDEVLSPVMFPVLHQLLGQTLITTDGKTLLGADDKAGIAEIMTALAVLQQKKIPHGDIRVAFTPDEEVGKGAKHFDVDAFDARWAYTVDGGGVGELEFENFNAASVNIKIVGNNVHPGTAKGVMVNALSLAARIHAEVPADESPEMTEGYEGFYHLASMKGTVERADMHYIIRDFDRKQFEARKRKMMEIAKKVGKGLHPDCYIELVIEDSYYNMREKVVEHPHILDIAQQAMRDCDIEPELKPIRGGTDGAQLSFMGLPCPNLFTGGYNYHGKHEFVTLEGMEKAVQVIVRIAELTAQRK
notes: PepT of Escherichia coli, found with Foldseek as a protein structurally similar to PepV; The methods speak of recombinant His-tagged proteins from E. coli BL21(DE3); the construct of PepT is not described; also called Esherichia coli PepT; source: purified
stoichiometry N [4]: 4
